Laboratory results taken from article PMC9412374, “Design, Synthesis, and Development of pyrazolo[1,5-a]pyrimidine Derivatives as a Novel Series of Selective PI3Kδ Inhibitors: Part I—Indole Derivatives” (Pharmaceuticals, 2022).
Where two headings read alike, the source gives them in different places.

Legend:
Type in all cases: biochemical
PI3Kα = molecular target: T1, PI3Kα (Homo sapiens, UniProt P42336); assay: In vitro kinase inhibition assay for PI3K (ADP-Glo), PI3Kα; settings: for IC50: IC50 PI3K α, recombinant kinase, ADP-Glo, mean of two independent experiments; for Fold Selectivity α/δ: ratio of IC50 PI3Kα to IC50 PI3Kδ
T1 construct: purchased Carna Biosciences
Method: (§1) Tested compounds were dissolved in 100% DMSO, and obtained solutions were serially diluted in 1× reaction buffer. The recombinant kinase solution was diluted in a reaction mixture comprising 5× reaction buffer, respective compound solution (1 mM sodium diacetate 4,5-bisphosphate phosphatidylinositol (PIP2) solution in 40 mM Tris buffer), and water. In a 96-wells plate, 5 μL of compound solutions and 15 μL of the kinase solution in the reaction mixture were added per well. To initiate the interaction of chemical compounds to be tested with the enzyme, the plate was incubated for 10 min at a suitable temperature in a plate thermostat with orbital shaking at 600 rpm. Negative control wells contained all the above reagents except tested compound and kinase, and positive control wells contained all the above reagents except tested compounds. The enzymatic reaction was initiated by adding 5 μL of 150 μM ATP solution. Subsequently, the plate was incubated for 1 h at 25 or 30 °C (depending on the PI3K isoform tested) in a plate thermostat with orbital shaking of the plate contents at 600 rpm. The reaction conditions are combined in the table below (Table 6).
(§2) Detection of ADP formed in the enzymatic reaction was then performed using ADP-Glo Kinase Assay™ (Promega, Madison, WI, USA). To the wells of a 96-well plate, 25 μL of ADP-Glo Reagent™ was added, and the plate was incubated for 40 min at 25 °C in a plate thermostat with orbital shaking at 600 rpm. Then 50 μL of Kinase Detection Reagent were added to each well, and the plate was incubated for 40 min at 25 °C in a plate thermostat with orbital shaking at 600 rpm. Once the incubation was complete, the luminescence intensity was measured using a Victor Light luminometer (Perkin Elmer, Inc., Waltham, MA, USA). IC50 values were determined based on luminescence intensity measured in wells containing tested compounds at different concentrations in relation to control wells. These values were calculated with Graph Pad 5.03 software by fitting the curve using non-linear regression. Each compound was tested at least in quadruplicates (4 wells) on two 96-well plates utilizing at least 4 wells for each control. Averaged results of inhibition activity respective to specific isoforms of PI3K kinases for tested compounds are presented as IC50 values in Table 1, Table 2, Table 3 and Table 4.

PI3Kγ = molecular target: T2, PI3Kγ (Homo sapiens, UniProt P48736); assay: In vitro kinase inhibition assay for PI3K (ADP-Glo), PI3Kγ; settings: for Fold Selectivity γ/δ: ratio of IC50 PI3Kγ to IC50 PI3Kδ
T2 construct: purchased Merck Millipore
Method: as §1, with “The enzymatic reaction was initiated by adding 5 μL of 150 μM ATP solution.” left out
as §2, with “These values were calculated with Graph Pad 5.03 software by fitting the curve using non-linear regression.” left out, “control.” for “control. Averaged results of inhibition activity respective to specific isoforms of PI3K kinases for tested compounds are presented as IC50 values in Table 1, Table 2, Table 3 and Table 4.”

PI3Kβ = molecular target: T3, PI3Kβ (Homo sapiens, UniProt P42338); assay: In vitro kinase inhibition assay for PI3K (ADP-Glo), PI3Kβ; settings: for Fold Selectivity β/δ: ratio of IC50 PI3Kβ to IC50 PI3Kδ
T3 construct: purchased Merck Millipore
Method: as §1, with “The enzymatic reaction was initiated by adding 5 μL of 150 μM ATP solution.” left out
as §2, with “These values were calculated with Graph Pad 5.03 software by fitting the curve using non-linear regression.” left out, “control.” for “control. Averaged results of inhibition activity respective to specific isoforms of PI3K kinases for tested compounds are presented as IC50 values in Table 1, Table 2, Table 3 and Table 4.”

PI3Kδ = molecular target: T4, PI3Kδ (Homo sapiens, UniProt O00329); assay: In vitro kinase inhibition assay for PI3K (ADP-Glo), PI3Kδ; settings: recombinant kinase, mean of two independent experiments, read-out: IC50 PI3K δ
T4 construct: purchased Merck Millipore
Method: as §1, with “The enzymatic reaction was initiated by adding 5 μL of 150 μM ATP solution.” left out
as §2, with “These values were calculated with Graph Pad 5.03 software by fitting the curve using non-linear regression.” left out, “control.” for “control. Averaged results of inhibition activity respective to specific isoforms of PI3K kinases for tested compounds are presented as IC50 values in Table 1, Table 2, Table 3 and Table 4.”

[1] = recombinant kinase, ADP-Glo, mean of two independent experiments, read-out: IC50 PI3K γ
[2] = recombinant kinase, ADP-Glo, mean of two independent experiments, read-out: IC50 PI3K β

T1 sequence (P42336 whole entry): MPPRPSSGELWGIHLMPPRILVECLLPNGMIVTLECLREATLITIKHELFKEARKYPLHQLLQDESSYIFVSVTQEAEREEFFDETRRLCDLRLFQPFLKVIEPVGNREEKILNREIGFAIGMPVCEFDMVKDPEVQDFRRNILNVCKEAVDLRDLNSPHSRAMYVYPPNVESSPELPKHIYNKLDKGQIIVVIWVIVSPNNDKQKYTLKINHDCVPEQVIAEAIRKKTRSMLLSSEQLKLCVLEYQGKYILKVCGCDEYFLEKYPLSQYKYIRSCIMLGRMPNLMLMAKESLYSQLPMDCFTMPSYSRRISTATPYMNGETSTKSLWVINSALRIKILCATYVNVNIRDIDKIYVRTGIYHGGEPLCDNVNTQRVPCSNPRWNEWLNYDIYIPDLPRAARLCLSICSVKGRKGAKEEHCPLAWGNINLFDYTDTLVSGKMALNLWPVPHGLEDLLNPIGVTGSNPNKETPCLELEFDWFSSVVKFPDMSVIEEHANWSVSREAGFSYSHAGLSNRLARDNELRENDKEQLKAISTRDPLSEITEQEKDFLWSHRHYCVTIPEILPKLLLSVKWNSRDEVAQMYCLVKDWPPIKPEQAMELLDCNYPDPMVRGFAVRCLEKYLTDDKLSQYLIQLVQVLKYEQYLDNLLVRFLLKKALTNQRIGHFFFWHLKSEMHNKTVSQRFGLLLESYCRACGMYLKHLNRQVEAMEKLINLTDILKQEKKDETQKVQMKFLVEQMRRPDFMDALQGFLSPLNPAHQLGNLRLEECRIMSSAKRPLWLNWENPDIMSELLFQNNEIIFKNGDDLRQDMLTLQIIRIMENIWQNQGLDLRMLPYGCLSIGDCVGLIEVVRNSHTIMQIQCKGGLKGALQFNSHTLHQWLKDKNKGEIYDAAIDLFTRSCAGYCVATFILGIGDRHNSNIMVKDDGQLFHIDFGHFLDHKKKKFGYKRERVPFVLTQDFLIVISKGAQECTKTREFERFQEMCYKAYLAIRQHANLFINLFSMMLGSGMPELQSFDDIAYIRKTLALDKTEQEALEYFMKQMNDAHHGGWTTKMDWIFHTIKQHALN
T1 sequence (P27986 whole entry partner): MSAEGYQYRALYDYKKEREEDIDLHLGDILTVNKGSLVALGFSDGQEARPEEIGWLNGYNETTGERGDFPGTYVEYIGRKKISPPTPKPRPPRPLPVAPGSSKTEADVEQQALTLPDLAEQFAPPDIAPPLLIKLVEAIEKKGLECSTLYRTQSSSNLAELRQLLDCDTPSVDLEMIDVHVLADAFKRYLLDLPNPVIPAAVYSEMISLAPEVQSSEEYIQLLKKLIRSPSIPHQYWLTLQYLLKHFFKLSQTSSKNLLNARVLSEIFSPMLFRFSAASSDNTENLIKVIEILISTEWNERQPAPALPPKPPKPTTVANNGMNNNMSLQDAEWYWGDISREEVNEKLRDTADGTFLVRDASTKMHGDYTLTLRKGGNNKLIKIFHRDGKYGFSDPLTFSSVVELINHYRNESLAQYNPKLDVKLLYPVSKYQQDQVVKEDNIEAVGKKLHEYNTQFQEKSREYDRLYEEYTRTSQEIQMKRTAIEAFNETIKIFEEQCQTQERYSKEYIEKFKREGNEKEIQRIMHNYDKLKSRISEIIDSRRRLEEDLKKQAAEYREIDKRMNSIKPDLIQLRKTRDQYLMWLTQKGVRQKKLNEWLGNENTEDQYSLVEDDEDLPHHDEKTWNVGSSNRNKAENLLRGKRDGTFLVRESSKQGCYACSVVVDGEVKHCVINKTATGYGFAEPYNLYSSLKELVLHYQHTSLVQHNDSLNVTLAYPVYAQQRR
T4 sequence (P27986 whole entry): as the sequence (P27986 whole entry partner) above
T4 sequence (O00329 whole entry): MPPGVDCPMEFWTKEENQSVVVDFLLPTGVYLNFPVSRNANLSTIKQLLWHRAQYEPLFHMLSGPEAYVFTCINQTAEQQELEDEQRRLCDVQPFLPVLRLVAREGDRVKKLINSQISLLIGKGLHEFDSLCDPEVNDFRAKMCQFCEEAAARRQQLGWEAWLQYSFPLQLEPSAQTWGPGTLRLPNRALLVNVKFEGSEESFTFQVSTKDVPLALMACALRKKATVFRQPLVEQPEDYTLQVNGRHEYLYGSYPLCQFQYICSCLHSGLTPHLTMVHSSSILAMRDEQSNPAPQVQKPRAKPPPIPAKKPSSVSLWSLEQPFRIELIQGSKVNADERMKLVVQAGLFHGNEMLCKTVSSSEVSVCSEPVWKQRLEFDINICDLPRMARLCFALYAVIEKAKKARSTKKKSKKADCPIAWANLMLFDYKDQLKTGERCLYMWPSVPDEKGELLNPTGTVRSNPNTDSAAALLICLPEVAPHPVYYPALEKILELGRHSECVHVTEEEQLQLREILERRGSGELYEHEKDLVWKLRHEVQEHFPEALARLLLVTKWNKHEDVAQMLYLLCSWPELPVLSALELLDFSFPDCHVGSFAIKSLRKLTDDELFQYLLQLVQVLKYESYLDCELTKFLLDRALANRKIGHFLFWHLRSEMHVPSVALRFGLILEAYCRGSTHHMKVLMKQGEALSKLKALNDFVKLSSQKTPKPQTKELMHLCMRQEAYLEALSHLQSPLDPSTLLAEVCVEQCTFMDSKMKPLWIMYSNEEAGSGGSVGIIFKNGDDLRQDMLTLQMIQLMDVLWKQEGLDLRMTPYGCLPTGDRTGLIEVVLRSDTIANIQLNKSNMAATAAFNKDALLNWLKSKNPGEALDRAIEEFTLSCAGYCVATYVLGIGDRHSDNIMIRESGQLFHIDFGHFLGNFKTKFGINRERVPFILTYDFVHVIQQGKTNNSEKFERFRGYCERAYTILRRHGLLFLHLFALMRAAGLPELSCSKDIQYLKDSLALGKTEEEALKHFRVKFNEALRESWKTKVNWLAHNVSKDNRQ
T3 sequence (P42338 whole entry): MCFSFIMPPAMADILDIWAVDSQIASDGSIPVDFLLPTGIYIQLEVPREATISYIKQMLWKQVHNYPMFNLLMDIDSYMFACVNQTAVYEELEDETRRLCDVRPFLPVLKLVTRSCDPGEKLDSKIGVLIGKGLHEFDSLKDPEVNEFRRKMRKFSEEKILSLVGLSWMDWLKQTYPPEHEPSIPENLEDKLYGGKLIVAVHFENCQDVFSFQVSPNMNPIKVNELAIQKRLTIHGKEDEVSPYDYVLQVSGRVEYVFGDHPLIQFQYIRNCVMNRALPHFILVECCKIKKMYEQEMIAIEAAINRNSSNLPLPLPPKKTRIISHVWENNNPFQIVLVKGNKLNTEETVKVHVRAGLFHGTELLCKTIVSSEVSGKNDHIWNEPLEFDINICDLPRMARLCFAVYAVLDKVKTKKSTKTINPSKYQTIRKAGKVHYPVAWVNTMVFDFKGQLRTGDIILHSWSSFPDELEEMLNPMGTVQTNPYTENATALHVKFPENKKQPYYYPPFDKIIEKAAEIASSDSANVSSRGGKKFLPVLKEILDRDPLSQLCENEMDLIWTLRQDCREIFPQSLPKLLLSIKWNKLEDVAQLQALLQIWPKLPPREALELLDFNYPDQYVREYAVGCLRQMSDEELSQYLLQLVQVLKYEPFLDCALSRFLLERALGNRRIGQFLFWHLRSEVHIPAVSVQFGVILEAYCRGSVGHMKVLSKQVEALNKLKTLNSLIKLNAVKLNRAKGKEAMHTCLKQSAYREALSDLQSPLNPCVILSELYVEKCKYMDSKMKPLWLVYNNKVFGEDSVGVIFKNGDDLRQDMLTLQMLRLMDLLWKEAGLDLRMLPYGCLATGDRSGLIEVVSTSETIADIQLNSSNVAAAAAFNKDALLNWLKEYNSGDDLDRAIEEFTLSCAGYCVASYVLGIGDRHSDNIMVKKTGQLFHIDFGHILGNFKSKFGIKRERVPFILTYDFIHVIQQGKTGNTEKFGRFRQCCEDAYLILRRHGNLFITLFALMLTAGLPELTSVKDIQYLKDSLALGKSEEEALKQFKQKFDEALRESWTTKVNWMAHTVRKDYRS
T3 sequence (P27986 whole entry, further chain): as the sequence (P27986 whole entry partner) above
T2 sequence (P48736 whole entry): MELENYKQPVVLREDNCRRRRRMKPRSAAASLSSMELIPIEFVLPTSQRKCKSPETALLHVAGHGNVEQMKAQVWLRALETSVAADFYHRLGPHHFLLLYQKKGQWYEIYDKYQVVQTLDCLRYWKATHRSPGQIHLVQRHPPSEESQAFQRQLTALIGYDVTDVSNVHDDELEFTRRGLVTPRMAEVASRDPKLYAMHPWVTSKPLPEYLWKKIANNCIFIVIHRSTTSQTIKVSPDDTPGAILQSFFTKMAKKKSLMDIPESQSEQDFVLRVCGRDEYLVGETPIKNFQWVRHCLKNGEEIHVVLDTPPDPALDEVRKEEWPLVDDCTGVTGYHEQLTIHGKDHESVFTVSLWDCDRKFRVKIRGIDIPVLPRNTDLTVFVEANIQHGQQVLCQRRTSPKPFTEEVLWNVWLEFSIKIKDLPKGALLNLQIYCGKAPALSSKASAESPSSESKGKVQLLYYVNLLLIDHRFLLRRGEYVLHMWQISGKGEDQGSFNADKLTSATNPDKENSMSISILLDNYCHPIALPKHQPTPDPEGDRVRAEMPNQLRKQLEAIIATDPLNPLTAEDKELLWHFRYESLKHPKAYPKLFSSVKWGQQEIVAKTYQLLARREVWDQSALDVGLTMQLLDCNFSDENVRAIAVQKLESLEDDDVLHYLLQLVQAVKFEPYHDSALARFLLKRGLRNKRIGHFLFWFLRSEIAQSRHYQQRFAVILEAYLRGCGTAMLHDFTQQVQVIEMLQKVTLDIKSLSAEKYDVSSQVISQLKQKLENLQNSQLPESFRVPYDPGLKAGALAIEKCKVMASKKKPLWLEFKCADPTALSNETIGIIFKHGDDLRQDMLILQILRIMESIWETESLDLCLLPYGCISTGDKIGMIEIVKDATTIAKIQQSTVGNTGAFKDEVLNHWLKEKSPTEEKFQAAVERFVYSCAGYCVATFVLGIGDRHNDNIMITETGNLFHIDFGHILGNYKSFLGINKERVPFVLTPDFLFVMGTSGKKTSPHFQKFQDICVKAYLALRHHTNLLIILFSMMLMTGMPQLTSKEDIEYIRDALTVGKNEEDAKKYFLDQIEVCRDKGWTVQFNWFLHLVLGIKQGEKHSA

| SMILES | IC50 (PI3Kα) | Fold Selectivity α/δ (PI3Kα) | Fold Selectivity γ/δ (PI3Kγ) | IC50 (PI3Kγ; [1]) | Fold Selectivity β/δ (PI3Kβ) | IC50 (PI3Kβ; [2]) | IC50 (PI3Kδ) | IC50 (PI3Kγ) | IC50 (PI3Kβ) |
| --- | --- | --- | --- | --- | --- | --- | --- | --- | --- |
| CN(C)C1CCN(Cc2cc3nc(-c4cccc5[nH]ccc45)cc(N4CCOCC4)n3n2)CC1 [Compound 24, 2-((4-(dimethylamino)piperidin-1-yl)methyl)-5-(1H-indol-4-yl)-7-(morpholin-4-yl)pyrazolo[1,5-a]pyrimidine] | 6.38 µM | 172 | 1332 | 49.3 µM | 389 | 14.4 µM | 37 nM | – | – |
| CCN1CCN(Cc2cc3nc(-c4cccc5[nH]ccc45)cc(N4CCOCC4)n3n2)CC1 [Compound 34, 2-((4-ethylpiperazin-1-yl)methyl)-5-(1H-indol-4-yl)-7-(morpholin-4-yl)pyrazolo[1,5-a]pyrimidine] | 34.3 µM | 798 | >1395 | > 60 µM | 253 | 10.9 µM | 43 nM | – | – |
| CC(C)(O)C1CCN(Cc2cc3nc(-c4cccc5[nH]ccc45)cc(N4CCOCC4)n3n2)CC1 [Compound 36, 2-((4-(2-hydroxypropan-2-yl)piperidin-1-yl)methyl)-5-(1H-indol-4-yl)-7-(morpholin-4-yl)pyrazolo[1,5-a]pyrimidine] | 15.8 µM | 1217 | 1223 | – | 332 | 4.31 µM | 13 nM | 15.9 µM | – |
| CC(C)(C(N)=O)N1CCN(Cc2cc3nc(-c4cccc5[nH]ccc45)cc(N4CCOCC4)n3n2)CC1 [Compound 38, 2-(4-((5-(1H-indol-4-yl)-7-(morpholin-4-yl)pyrazolo[1,5-a]pyrimidin-2-yl)methyl)piperazin-1-yl)-2-methylpropionamide] | 17.7 µM | 433 | 428 | – | 146 | 5.99 µM | 41 nM | 17.5 µM | – |
| c1cc(-c2cc(N3CCOCC3)n3nc(CN4CCN(C5CC5)CC4)cc3n2)c2cc[nH]c2c1 [Compound 39, 2-((4-cyclopropylpiperazin-1-yl)methyl)-5-(1H-indol-4-yl)-7-(morpholin-4-yl)pyrazolo[1,5-a]pyrimidine] | 25.3 µM | 436 | – | – | 259 | 15 µM | 58 nM | – | – |
| CC(C)(C)C1CCN(Cc2cc3nc(-c4cccc5[nH]ccc45)cc(N4CCOCC4)n3n2)CC1 [Compound 41, 2-((4-tert-butylpiperidin-1-yl)methyl)-5-(1H-indol-4-yl)-7-(morpholin-4-yl)pyrazolo[1,5-a]pyrimidine] | 12.3 µM | 241 | 191 | 9.73 µM | 62 | 3.17 µM | 51 nM | – | – |
| O=C(C1CC1)N1CCN(Cc2cc3nc(-c4cccc5[nH]ccc45)cc(N4CCOCC4)n3n2)CC1 [Compound 44, 2-((4-(cyclopropanecarbonyl)piperazin-1-yl)methyl)-5-(1H-indol-4-yl)-7-(morpholin-4-yl)pyrazolo[1,5-a]pyrimidine] | 1.27 µM | 58 | 38 | 0.846 µM | 332 | 7.31 µM | 22 nM | – | – |
| CC(C)(O)C1CCN(Cc2cc3nc(-c4c(F)ccc5[nH]ccc45)cc(N4CCOCC4)n3n2)CC1 [Compound 49, 2-((4-(2-hydroxypropan-2-yl)piperidin-1-yl)methyl)-5-(5-fluoro-1H-indol-4-yl)-7-(morpholin-4-yl)pyrazolo[1,5-a]pyrimidine] | 34.4 µM | 860 | 1195 | 47.8 µM | 283 | 11.3 µM | 40 nM | – | – |
| CC(C)(O)C1CCN(Cc2cc3nc(-c4cncc5[nH]ccc45)cc(N4CCOCC4)n3n2)CC1 [Compound 50, 2-((4-(2-hydroxypropan-2-yl)piperidin-1-yl)methyl)-5-(1H-pyrrolo [2,3-c]pyridin-4-yl)-7-(morpholin-4-yl)pyrazolo[1,5-a]pyrimidine] | 3.65 µM | 130 | – | – | 188 | 5.26 µM | 28 nM | – | – |
| CC(C)(O)C1CCN(Cc2cc3nc(-c4ccnc5[nH]ccc45)cc(N4CCOCC4)n3n2)CC1 [Compound 51, 2-((4-(2-hydroxypropan-2-yl)piperidin-1-yl)methyl)-5-(1H-pyrrolo [2,3-b]pyridin-4-yl)-7-(morpholin-4-yl)pyrazolo[1,5-a]pyrimidine] | 9.75 µM | 424 | – | – | 1165 | 26.8 µM | 23 nM | – | – |
| CC(C)(C)N1CCN(Cc2cc3nc(-c4c(F)ccc5[nH]ccc45)cc(N4CCOCC4)n3n2)CC1 [Compound 53, 2-((4-tert-butylpiperazin-1-yl)methyl)-5-(5-fluoro-1H-indol-4-yl)-7-(morpholin-4-yl)pyrazolo[1,5-a]pyrimidine] | 19.3 µM | 1754 | >5455 | > 60 µM | 1768 | – | 11 nM | – | 19.5 µM |
| CC(C)(C)N1CCN(Cc2cc3nc(-c4ccnc5[nH]ccc45)cc(N4CCOCC4)n3n2)CC1 [Compound 55, 2-((4-tert-butylpiperazin-1-yl)methyl)-5-(1H-pyrrolo [2,3-b]pyridin-4-yl)-7-(morpholin-4-yl)pyrazolo[1,5-a]pyrimidine] | 2.96 µM | 66 | – | – | 711 | 32 µM | 45 nM | – | – |
